Results as given in patent US12611380B2, “Solution and method for reducing the virulence of viruses, bacteria, yeasts, or fungus” (priority 2020, dated 2026).

Test system: Candida albicans ATCC 10231
Assay: EPA MLB SOP MB-35-00 stainless steel carrier disinfection with ILPS (Example 5)
Type: cell-based

## potassium salt of isomerized linoleic acid [ILCS]
1 minute exposure to ILPS, only exposure time of 8 to 1 minutes with growth
  growth on exposed carrier: 158 CFU
2 minutes exposure/immersion, carriers with 6-8 log yeast
  kill: 100%
Undiluted ILPS, 10 minutes contact time, PBS controls 5.9 to 7.2 log10 CFU
  colonies recovered from treated surfaces: no Candida albicans colonies
